Like-named read-outs stand apart in the source and are kept apart here. Numbered stars: 1 amine (or outer) side, 2 acyl side, 3 side chain; on linkers, the order of the positions; unused ones are H or OH. Bridge positions count the residues as written; N and C are the ends. Square brackets hold non-standard residues; d marks the D form. Peptide text beside a SMILES is read from it. I, II: the chains in the order shown. Actinocin(9to1) = Cc1c2oc3c(C)ccc(C(=O)[*:1])c3nc-2c(C(=O)[*:2])c(N)c1=O; NMeV = CN[C@H](C(=O)O)C(C)C; Sar = CNCC(=O)O
Tests used:
Format in all cases: cell-based, Saccharomyces cerevisiae
[1] = test system: yCM61 (Δpdr1, Δpdr5, Δsnq2, Δerg6); experiment: Growth inhibition (sensitivity to cytotoxic products) as measure of permeability, strain yCM61 (Example 6)
Text: The strain yCM30 is transformed by the fragment prepared as described in Example 5 in 1a. After elimination of the selectable marker, the strain yCM45 (Δpdr1, Δpdr5, ura3, trp1, MAT α) is obtained. The strain yCM45 is transformed by the fragment prepared as described in Example 5 in 1b. After elimination of the selectable marker, the strain yCM51 (Δpdr1, Δpdr5, Δsnq2, ura3, trp1, MAT α) is obtained. The strain yCM51 is transformed by the fragment prepared as described in Example 1 in 1a. After elimination of the selectable marker, the strain yCM61 (Δpdr1, Δpdr5, Δsnq2, Δerg6, ura3, trp1, MAT α) is obtained.
(§1) The permeability of the yeast strains 5247 and yCM61 is determined by measurement of the sensitivity to different cytotoxic products. The different yeasts are inoculated at an optical density of 0.05 to 700 nm in YNB minimum medium correctly supplemented with bases and amino acids in the presence of an increasing concentration of xenobiotics. The cultures are placed at 28° C. and at 200 rpm for 48 hours. The optical density at 700 nm is then measured. The EC50 is determined as the xenobiotic concentration inhibiting the growth of the yeast by half compared with a control without xenobiotic.

5247 (wt) [2] = experiment: Growth inhibition (sensitivity to cytotoxic products) as measure of permeability, wild-type strain (Example 6)
Method: (§2) The strain of yeast used is the strain S. cerevisiae 5247 (Marcireau, 1992) of the ura3, trp1, MAT α genotype. This strain is transformed according to the method described by Gietz (Gietz, 1992).
as §1

yCM30 (Δpdr1) = experiment: Growth inhibition (sensitivity to cytotoxic products) as measure of permeability, strain yCM30; conditions: for EC50: Saccharomyces cerevisiae; for RATIO: EC50 5247 (wt) / EC50 yCM30, 2880 min
Method: (§3) The strain 5247 is transformed as described in 3) with the fragments prepared as described in 2a), 2b), 2c). After elimination of the selectable marker, the strains yCM30 (Δpdr1, ura3, trp1, MAT α), yCM63 (Δerg4, ura3, trp1, MAT α) and yCM65 (Δpdr1, Δerg4, ura3, trp1, MAT α) are obtained.
(§4) The permeability of the yeasts obtained in Example 1 is determined by measuring the sensitivity to different cytotoxic products. The different yeasts are inoculated at an optical density of 0.05 to 700 nm in YNB minimum medium correctly supplemented with bases and amino acids in the presence of an increasing concentration of xenobiotics. The cultures are placed at 28° C. and at 200 rpm for 48 hours. The optical density at 700 nm is then measured. The EC50 is then determined as the xenobiotic concentration inhibiting the growth of the yeast by half compared with a control without xenobiotic.
(§5) This evaluation was carried out according to the procedure described in Example 2.

yCM57 (Δpdr1, Δerg6) = experiment: Growth inhibition (sensitivity to cytotoxic products) as measure of permeability, strain yCM57; conditions: for RATIO: EC50 5247 (wt) / EC50 yCM57, 2880 min
Method: as §4
The strain yCM30 is transformed by the fragment prepared as described in la. After elimination of the selectable marker, the strain yCM57 (Δpdr1, Δerg6, ura3, trp1, MAT α) is obtained.
as §5

yCM65 (Δpdr1, Δerg4) = experiment: Growth inhibition (sensitivity to cytotoxic products) as measure of permeability, strain yCM65; conditions: for EC50: Saccharomyces cerevisiae; for RATIO: EC50 5247 (wt) / EC50 yCM65, 2880 min
Method: as §3, §4

5247 (wt) [3] = experiment: Growth inhibition (sensitivity to cytotoxic products) as measure of permeability, wild-type strain (Examples 2 and 4); conditions: for EC50: Saccharomyces cerevisiae; for RATIO: EC50 relative to wild type 5247, 2880 min
Method: as §2, §4, §5

yCM55 (Δerg6) = experiment: Growth inhibition (sensitivity to cytotoxic products) as measure of permeability, strain yCM55; conditions: for EC50: Saccharomyces cerevisiae; for RATIO: EC50 5247 (wt) / EC50 yCM55, 2880 min
Method: as §4
The strain 5247 is transformed by the fragment prepared as described in 1a. After elimination of the selectable marker, the strain yCM55 (Δerg6,ura3, trp1, MAT α) is obtained.
as §5

yCM63 (Δerg4) = experiment: Growth inhibition (sensitivity to cytotoxic products) as measure of permeability, strain yCM63; conditions: for RATIO: EC50 5247 (wt) / EC50 yCM63, 2880 min; for EC50: Saccharomyces cerevisiae, YNB minimum medium, 28° C., 48 hours, OD 700 nm
Method: as §3, §4

[4] = Saccharomyces cerevisiae, Example 6, strain yCM61 (Δpdr1, Δpdr5, Δsnq2, Δerg6), YNB minimum medium, 28° C., 48 hours, OD 700 nm, read-out: EC50
[5] = Saccharomyces cerevisiae, Example 6, strain 5247 (wt), YNB minimum medium, 28° C., 48 hours, OD 700 nm, read-out: EC50
[6] = EC50 5247 (wt) / EC50 yCM61, 2880 min
[7] = strain yCM30 (Δpdr1), YNB minimum medium, 28° C., 48 hours, OD 700 nm, read-out: EC50
[8] = strain yCM65 (Δpdr1, Δerg4), YNB minimum medium, 28° C., 48 hours, OD 700 nm, read-out: EC50
[9] = strain 5247 (wt), YNB minimum medium, 28° C., 48 hours, OD 700 nm, read-out: EC50
[10] = strain yCM55 (Δerg6), YNB minimum medium, 28° C., 48 hours, OD 700 nm, read-out: EC50

Compound: CC[C@H](C)C(=O)O[C@H]1C[C@@H](C)C=C2C=C[C@H](C)[C@H](CC[C@@H]3C[C@@H](O)CC(=O)O3)[C@H]21 [Lovastatin]
- EC50 [1, 4]: 3.8 µM
- RATIO ([1]; s. cerevisiae ycm61, 2880 min): 37
- EC50 (5247 (wt) [2]; [5]): 143 µM

Compound: CC[C@@]1(O)C(=O)OCc2c1cc1n(c2=O)Cc2cc3ccccc3nc2-1 [Camptothecin]
- RATIO [1, 6]: > 100
- EC50 ([1]; Saccharomyces cerevisiae, 48 h): 5.74 µM
- EC50 (5247 (wt) [2]; Saccharomyces cerevisiae, 48 h): > 574 µM

Compound: Cc1c2oc3c(C)ccc(C(=O)N[C@@H]4C(=O)N[C@H](C(C)C)C(=O)N5CCC[C@H]5C(=O)N(C)CC(=O)N(C)[C@@H](C(C)C)C(=O)O[C@@H]4C)c3nc-2c(C(=O)N[C@@H]2C(=O)N[C@H](C(C)C)C(=O)N3CCC[C@H]3C(=O)N(C)CC(=O)N(C)[C@@H](C(C)C)C(=O)O[C@@H]2C)c(N)c1=O [ACTINOMYCIN D, actinomycin D] (I: T[dV]P[Sar][NMeV] / II: T[dV]P[Sar][NMeV]; ester I:1-I:C, II:1-II:C; linker I:N-II:N via Actinocin(9to1))
- EC50 (yCM30 (Δpdr1); [7]): 12.7 µM
- RATIO (yCM30 (Δpdr1); strain yCM30 (Δpdr1)): 1.9
- IC50 (yCM57 (Δpdr1, Δerg6); Saccharomyces cerevisiae, strain yCM57 (Δpdr1, Δerg6), YNB minimum medium, 28° C., 48 hours, OD 700 nm, read-out: EC50 (the source's name)): 0.75 µM
- RATIO (yCM57 (Δpdr1, Δerg6); strain yCM57 (Δpdr1, Δerg6)): 31.9
- EC50 (yCM65 (Δpdr1, Δerg4); [8]): 5.8 µM
- RATIO (yCM65 (Δpdr1, Δerg4); strain yCM65 (Δpdr1, Δerg4)): 4.1
- EC50 (5247 (wt) [3]; [9]): 23.9 µM
- RATIO (5247 (wt) [3]; strain 5247 (wt)): 1
- EC50 (yCM55 (Δerg6); [10]): 5.6 µM
- RATIO (yCM55 (Δerg6); strain yCM55 (Δerg6)): 4.3
- RATIO (yCM63 (Δerg4)): 3.7
- EC50 (yCM63 (Δerg4)): 6.4 µM

Compound: COc1cccc2c1C(=O)c1c(O)c3c(c(O)c1C2=O)C[C@@](O)(C(=O)CO)C[C@@H]3O[C@H]1C[C@H](N)[C@H](O)[C@H](C)O1 [DOXORUBICIN, doxorubicin]
- EC50 (yCM30 (Δpdr1); [7]): 18.4 µM
- RATIO (yCM30 (Δpdr1); strain yCM30 (Δpdr1)): 2.2
- EC50 (yCM57 (Δpdr1, Δerg6); Saccharomyces cerevisiae, strain yCM57 (Δpdr1, Δerg6), YNB minimum medium, 28° C., 48 hours, OD 700 nm): 1.7 µM
- RATIO (yCM57 (Δpdr1, Δerg6); strain yCM57 (Δpdr1, Δerg6)): 23.8
- EC50 (yCM65 (Δpdr1, Δerg4); [8]): 5.15 µM
- RATIO (yCM65 (Δpdr1, Δerg4); strain yCM65 (Δpdr1, Δerg4)): 7.8
- EC50 (5247 (wt) [3]; [9]): 40.5 µM
- RATIO (5247 (wt) [3]; strain 5247 (wt)): 1
- EC50 (yCM55 (Δerg6); [10]): 12 µM
- RATIO (yCM55 (Δerg6); strain yCM55 (Δerg6)): 3.4
- RATIO (yCM63 (Δerg4)): 4.4
- EC50 (yCM63 (Δerg4)): 9.2 µM

Compound: Cc1cc(C)nc(NC(=O)NS(=O)(=O)c2ccccc2C(=O)O)n1 [Sulphomethuron]
- RATIO [1, 6]: > 50
- EC50 ([1]; Example 6, strain yCM61 (Δpdr1, Δpdr5, Δsnq2, Δerg6), YNB minimum medium, 28° C., 48 hours, OD 700 nm, read-out: EC50): < 0.13 µM
- EC50 (5247 (wt) [2]; Example 6, strain 5247 (wt), YNB minimum medium, 28° C., 48 hours, OD 700 nm, read-out: EC50): 6.9 µM

Compound: CO[C@@H]1[C@@H](OC(N)=O)[C@@H](O)[C@H](Oc2ccc3c(O)c(NC(=O)c4ccc(O)c(CC=C(C)C)c4)c(=O)oc3c2C)OC1(C)C [Novobiocin]
- RATIO [1, 6]: 27
- EC50 [1, 4]: 9 µM
- EC50 (5247 (wt) [2]; [5]): 245 µM

Compound: C[C@@H]1C[C@@H]([C@H](O)CC2CC(=O)NC(=O)C2)C(=O)[C@@H](C)C1 [Cycloheximide]
- RATIO [1, 6]: 500
- EC50 ([1]; Saccharomyces cerevisiae, 48 h): 0.142 µM
- EC50 (yCM30 (Δpdr1); 48 h): 2.5 µM
- RATIO (yCM30 (Δpdr1); strain yCM30 (Δpdr1)): 21.2
- IC50 (yCM57 (Δpdr1, Δerg6); Saccharomyces cerevisiae, 48 h, read-out: EC50): 0.2 µM
- RATIO (yCM57 (Δpdr1, Δerg6); strain yCM57 (Δpdr1, Δerg6)): 265
- EC50 (yCM65 (Δpdr1, Δerg4); 48 h): 0.5 µM
- RATIO (yCM65 (Δpdr1, Δerg4); strain yCM65 (Δpdr1, Δerg4)): 106
- EC50 (5247 (wt) [2]; Saccharomyces cerevisiae, 48 h): 71 µM
- EC50 (5247 (wt) [3]; 48 h): 53 µM
- RATIO (5247 (wt) [3]; strain 5247 (wt)): 1
- EC50 (yCM55 (Δerg6); 48 h): 2.3 µM
- RATIO (yCM55 (Δerg6); strain yCM55 (Δerg6)): 23

Reference: patent US5821038A, “Yeast with modified permeability” (priority 1994, dated 1998)
